These results are taken from PMC6268933 (Molecules, 2012).

Data set [1] in a line: β-carotene-linoleic acid (BCLA) assay. Conditions: bleaching of β-carotene, 450 nm, up to 120 min; mean ± SD (n = 3); read-out: BCLA method (IC50). The class given is biochemical. The procedure: This test was carried out according to the reported method of literature with modification. Approximately 4 mL of a solution of β-carotene in chloroform (1 mg/mL) were pipetted into a flask containing 40 mg of linoleic acid and 400 mg of Tween-40. The chloroform was removed using a rotary evaporator at 40 °C for 5 min, and to the residue, 100 mL of distilled water were added, slowly with vigorous agitation, to form an emulsion. A 96-well micro-titer plate was added with 50 μL of the Part 2.4.1 solution of the test compound and 200 μL of the emulsion, and the absorbance was measured at 450 nm, immediately, against a blank consisting of the emulsion without β-carotene. The plate was allowed to stand at room temperature (20–23 °C), and the absorbance measurements were conducted again at 30 min intervals up to 120 min. All tests were carried out in triplicate. Stable antioxidants of AscA and BHT were used as positive controls. The antioxidant activity (AA) of the test samples was evaluated in terms of bleaching of β-carotene using the formula; AA = [1 − (A0 − At)/(A0' − At')] × 100, where A0 and A0' are the absorbance values measured at zero time of the sample and the blank, respectively, and At and At' are the absorbance measured in the test sample and the blank, respectively, at times up to 120 min.

The nature of data set [2]: Cytotoxicity on Vero cells by MTT assay. The class given is cell-based. To be noted: African green monkey (Cercopitheus aethiops). The method, then: The isolated compounds were tested for in-vitro cytotoxicity using Vero cells by 3-(4,5-dimethylthiazol-2-yl)-2,5-diphenyltetrazolium bromide (MTT) assay. The Vero cell line was initiated from kidney of a normal adult African green monkey, Cercopitheus aethiops, obtained from Virology Laboratory, School of Biosciences and Biotechnology, Faculty of Science and Technology, UKM. Vero cells were maintained in DMEM, supplemented with 10% FBS and cultured at 37 °C in a humidified 5% CO2 incubator. The concentration of stock compound solution was 1.0 mg/mL prepared by dissolving 1 mg compound in 50 μL methanol and 950 μL 5% FBS-DMEM. Sonicator was used to emulsify the compounds for 40 min before the two-fold dilutions made in 5% FBS-DMEM to produce a compound solution at concentrations of 0.5, 0.25, 0125 and 0.0625 mg/mL. Briefly, a total of […] of cell suspension with different concentrations were added to each well in the 96-well micro-titer plates. As a positive control, each well from first to third wells was added with cells of 2.5 × 10^5, 1.25 × 10^5 and 0.625 × 10^5 cells/mL. For the negative control (100% cell death, LC100), […] of DMEM without cells were added to the twelfth well. Cells of 2.5 × 10^5 cells/mL were added into the fourth to eleventh wells. The plates were incubated for 48 h at 37 °C with 5% CO2 until a monolayer is formed. […] After the incubation period, MTT (20 μL, 5 mg/mL) was added into each well and the cells incubated for 2 to 4 h, until a purple precipitate was clearly visible under a microscope, the medium together with MTT (190 μL) was aspirated off from the wells, DMSO (100 μL) was added and the plate shaken for 5 min. The absorbance for each well was measured at 540 nm in a micro-titer plate reader and percentage of cell viability (CV) was calculated manually using the formula: CV = [(Abssample − Absnegative control)/(Abscell − Absnegative control)] × 100.
A general note: Tetrazolium dyes change colour on reduction, which living cells bring about.

Data set [3] is described as follows: DPPH radical scavenging activity (RSA) assay. The class given is biochemical. To be noted: for IC50: 15 min in the dark at room temperature, 515 nm, mean ± SD (n = 3), read-out: DPPH radical scavenging activities (IC50); for average fold higher DPPH scavenging activity compared to compounds 1 to 6: positive controls vs compounds 1 to 6. The method, then: The antioxidant activity of all six compounds was determined by the DPPH radical scavenging method according to the previous procedure with modification. Each compound was diluted two-fold in a series of five starting from 5.00 mg/mL. The solution of DPPH in methanol (6 × 10^−5 M) was prepared daily before UV measurements. A 3 mL aliquot of this solution was mixed with 77 μL of the compound solution in a 1-cm path length microcuvette. The mixture was shaken vigorously. The mixtures were then kept in the dark for 15 min at room temperature and the decrease in absorption was measured immediately in a UV-Vis spectrophotometer at 515 nm. The blank solution containing the same amount of methanol and DPPH solution was prepared and its absorption was measured daily. The experiment was carried out in triplicate. AscA and BHT were used as positive controls. The RSA of samples, expressed as percentage inhibition of DPPH, was calculated according to the formula: Inhibition percentage (Ip) = [(AB − AA)/AB] × 100, where AB and AA are the absorbance values—checked after 15 min—of the blank sample and of the tested sample solutions, respectively.
For orientation: The DPPH test is a chemical assay of radical scavenging.

The conditions of data set [4]: cited from earlier work.
Setting [5] is: Vero cells, MTT, 24 h incubation, read-out: Cytotoxic activities on Vero cell lines (LC50).
[6] abbreviates: from V. chunganensis, read-out: DPPH RSA.
The mark [7] stands for this setting: from Parthenocissus laetevirens, read-out: DPPH RSA antioxidant activities.
Where [8] appears, read: from V. wilsonae, read-out: antioxidant activities towards DPPH, IC50.

Where two headings read alike, the source gives them in different places.

In the case of `Oc1ccc([C@@H]2c3c(O)cc(O)cc3[C@@H]3c4c(cc(O)cc4[C@@H]2O)O[C@H]3c2ccc(O)cc2)cc1` (relative stereo) [Compound 1, acuminatol], the values for the IC50 in data set [1] and in data set [3] were 180 ± 10 µM and 10.06 ± 0.05 mM, respectively. In data set [2] (setting [5]), the CC50 at 24 h worked out at 400 µM. Consider `O=C1O[C@H]([C@@H](O)CO)C(O)=C1O` [AscA, ascorbic acid, reference compound], for which, in data set [1], the IC50 came out at 25200 ± 1740 µM. In data set [3], the IC50 was determined as 0.68 mM and the “average fold higher DPPH scavenging activity compared to compounds 1 to 6” value amounted to 6 fold.

Regarding `Cc1cc(C(C)(C)C)c(O)c(C(C)(C)C)c1` [BHT, butylated hydroxytoluene, reference compound], the IC50 was 90 µM in data set [1] and 0.95 ± 0.05 mM in data set [3]. In data set [3], the “average fold higher DPPH scavenging activity compared to compounds 1 to 6” value worked out at 4 fold. For the compound `O=C1O[C@@H]2[C@H](O)COC23O[C@@H](c2ccc(O)cc2)[C@H](c2cc(O)cc4c2[C@@H](c2cc(O)cc(O)c2)[C@H](c2ccc(O)cc2)O4)[C@@]13O` (stereo partly shown) [Compound 2, laevifonol], the values for the IC50 in data set [1] and in data set [3] were 220 ± 20 µM and 4.21 ± 0.23 mM, respectively. For the same compound, the CC50 at 24 h in data set [2] (setting [5]) was 597 µM. For `Oc1ccc([C@H]2Oc3cc(O)cc4c3[C@@H]2c2cc(O)cc3c2[C@@H](c2cc(O)cc5c2[C@@H]4[C@H](c2ccc(O)cc2)O5)[C@H](c2ccc(O)cc2)O3)cc1` [Compound 3, (+)-α-viniferin], in that order: 180 µM, 6.29 ± 0.05 mM and 208 µM. Regarding `O=C1C=CC23C(C1)Oc1cc(O)cc4c1C2C(c1cc(O)cc2c1C4C(c1ccc(O)cc1)O2)C(c1cc(O)cc2c1C(c1cc(O)cc(O)c1)C(c1ccc(O)cc1)O2)C3c1ccc(O)cc1` (stereo not shown) [Compound 4, shoreaketone], the IC50 stood at 110 µM in data set [1] and 1.54 ± 0.1 mM in data set [3]. Besides, in data set [2] (setting [5]), the CC50 at 24 h worked out at 830 µM. For `Oc1ccc([C@@H]2c3c(O)cc(O)cc3[C@@H]3c4c(cc(O)c5c4[C@@H]2[C@H](c2ccc(O)cc2)[C@H]5c2cc(O)cc4c2[C@@H](c2cc(O)cc(O)c2)[C@H](c2ccc(O)cc2)O4)O[C@H]3c2ccc(O)cc2)cc1` [Compound 5, vaticanol B], in that order: 100 ± 10 µM, 0.84 ± 0.02 mM and 759 µM. For the compound `Oc1ccc([C@H]2c3c(O)cc(O)cc3[C@H]3c4c(cc(O)cc4[C@@H]2[C@H]2c4cc(O)cc5c4[C@H](c4cc(O)cc(O)c4[C@@H]2c2ccc(O)cc2)[C@@H](c2ccc(O)cc2)O5)O[C@@H]3c2ccc(O)cc2)cc1` [Compound 6, (−)-hopeaphenol], the IC50 came to 100 ± 10 µM in data set [1] and 2.78 ± 0.16 mM in data set [3]. For the same compound, in data set [2], the CC50 at 24 h amounted to 161 µM. On to `Oc1ccc(/C=C/c2c3c(cc4c2[C@H](c2cc(O)c(Cc5c(O)cc(O)cc5[C@@H]5c6c(O)cc7c8c6[C@H]([C@@H](c6ccc(O)cc6)c6c(O)cc(O)cc6[C@@H]8[C@@H](c6ccc(O)cc6)O7)[C@H]5c5ccc(O)cc5)c(O)c2)[C@@H](c2ccc(O)cc2)O4)O[C@H](c2ccc(O)cc2)[C@H]3c2cc(O)cc(O)c2)cc1` [chunganenol], for which, in data set [4] (setting [6]), the IC50 was 37.3 µM. As to `Oc1ccc([C@H]2c3c(O)cc(O)c4c3c(cc3ccc(O)cc34)[C@@H]2c2cc(O)cc(O)c2)cc1` [laetevirenol A], in data set [4] (setting [7]), the IC50 is 38.4 µM. With `Oc1cc(O)cc(/C=C/c2ccc(O)c(O)c2)c1` [piceatanol], the IC50 in data set [4] (from Cyperus longus, read-out: DPPH RSA IC50) was 11 µM. With `C[C@H](O)/C=C/[C@@]1(O)[C@H](C)[C@H](O)[C@@H](O)CC1(C)C` [wilsonol A], the IC50 in data set [4] (setting [8]) is 104 µM. Consider `C[C@@H]1[C@H](O)[C@@H](O)CC(C)(C)[C@@]1(O)/C=C/[C@@H](C)O` [wilsonol B], for which the IC50 in data set [4] (setting [8]) is 195 µM. Regarding `CC(=O)/C=C/[C@@]1(O)[C@H](C)[C@H](O)[C@@H](O)CC1(C)C` [wilsonol C], the IC50 in data set [4] (setting [8]) was 182 µM. (+)-amurensin G: in data set [4] (setting [6]), the IC50 was 138 µM. On to (+)-gnetin H, for which, in data set [4] (setting [6]), the IC50 is 251 µM. On to diviniferin B, for which the IC50 in data set [4] (setting [8]) was 175 µM.

In the case of laetevirenol B, the IC50 in data set [4] (setting [7]) was 37.3 µM. Turning to laetevirenol C, the IC50 in data set [4] (setting [7]) was 111 µM. Turning to laetevirenol D, the IC50 in data set [4] (setting [7]) is 128 µM. On to laetevirenol E, for which the IC50 in data set [4] (setting [7]) was 158 µM.
